Data published in paper PMC11878239, “Biochemical investigations using mass spectrometry to monitor JMJD6-catalysed hydroxylation of multi-lysine containing bromodomain-derived substrates” (RSC Chemical Biology, 2025).
“And” between values parts separate entries of the source, which are not always exact repeats. Equal values may be shown once. Read-outs that look alike come from different tables or passages of the source.

Legend:
[1] = test system: PHD2; conditions: PHD2 (4 μM), cited from earlier work; for k cat: O2
[2] = test system: FIH; conditions: FIH (5 μM), HIF-1α789–822 as substrate, cited from earlier work
[3] = test system: type I human collagen prolyl 4-hydroxylase (CP4H-I); conditions: (Pro-Pro-Gly)10 as substrate, [14C]CO2 release; cited from earlier work
[4] = test system: KDM4E; conditions: KDM4E (2.1 μM), H3_1–15K9me3 as substrate, oxygen consumption assay, cited from earlier work
[5] = target: T1, full-length His6-JMJD6 (Homo sapiens, UniProt Q6NYC1); test: SPE-MS kinetics of JMJD6 for O2; assay type: biochemical
T1 construct: An enzyme mixture (10 μL) containing full-length His6-JMJD6 (5 μM; final concentration: 0.05 μM); made in house; host or cells: Escherichia coli BL21 (DE3), pET-28a(+) plasmid
Protocol: Recombinant human JMJD6 (full length with a N-terminal His6-tag) was produced in Escherichia coli BL21 (DE3) cells using a pET-28a(+) plasmid and purified by standard Ni(II)-affinity size-exclusion chromatography, as previously reported.[40] […] Purified JMJD6 was stored at −78 °C; fresh aliquots were used for all JMJD6 assays.
Assays to determine the kinetic parameters of JMJD6 for O2 were performed in 2 mL gas-tight glass vials (Sigma-Aldrich) in independent triplicates. 50 mM Tris buffer (pH 7.5; 0.95 mL) was incubated in a 2 mL gas-tight glass vial at 37 °C for 30 min with a fixed O2 concentration (in N2; specified in Fig S9, ESI ^†), adjusted using a mass flow controller. […] The JMJD6-catalysed reaction was performed at 37 °C at a fixed O2 concentration and was stopped after the reaction time specified (Fig. S9, ESI ^†) by the addition of 20%v/v aqueous formic acid (100 μL) and analysed by SPE-MS. The %-concentration of O2 in N2, adjusted with a mass flow controller, was converted into an O2 concentration [μM] by calibration using a standard (i.e., y[μM] = 9.026·x[%]).[100] Data were analysed by SPE-MS as described above to calculate apparent JMJD6 kinetic parameters for O2.

[6] = test system: phytanoyl-CoA dioxygenase (PHYH); conditions: PHYH (50 μM), isovaleryl-CoA as substrate, oxygen consumption assay, cited from earlier work
[7] = test system: KDM4A; conditions: KDM4A versus JMJD6
[8] = test system: PHD2; conditions: PHD2 versus JMJD6
[9] = test system: AspH; conditions: AspH (0.1 μM), hFX-CP101–119 as substrate, cited from earlier work
[10] = test system: KDM4C; conditions: KDM4C (3 μM), H3_1–15K9me3 as substrate, oxygen consumption assay, cited from earlier work
[11] = test system: KDM4A; conditions: KDM4A (1 μM), H3_1–15K9me3 as substrate; cited from earlier work
[12] = test system: AspH; conditions: AspH versus JMJD6

K^app m (O2) of JMJD6: fold greater than CP4H-I ([5]; JMJD6/BRD4_511–550 versus CP4H-I (ref 26)): ~2 fold
K^app m (O2) of JMJD6: fold greater than KDM6B ([5]; JMJD6/BRD4_511–550 versus KDM6B (ref 96)): ~4 fold
apparent Michaelis constant K^app m for O2 ([5]; O2 varied, BRD4_511–550 (2 μM) as substrate, 0.05 μM full-length His6-JMJD6, 50 mM Tris pH 7.5, 37 °C, quenched after 60 or 90 s, SPE-MS, mean ± SD n = 3): 69.8 ± 11.4 µM and 74 ± 14 µM
apparent turnover number k^app cat ([5]; O2 varied, BRD4_511–550 (2 μM) as substrate, 0.05 μM full-length His6-JMJD6, 50 mM Tris pH 7.5, 37 °C, quenched after 60 or 90 s, mean ± SD n = 3): 0.12 ± 0.01 s⁻¹
specificity constant kcat/Km ([5]; O2 varied, BRD4_511–550 (2 μM) as substrate, 0.05 μM full-length His6-JMJD6, pH 7.5, 37 °C, n = 3): 1700 ± 400 M⁻¹ s⁻¹
SMILES: O=O [O2, dioxygen]
k cat ([1]; HIF-1α395–413 as substrate): 0.028 ± 0.001 s⁻¹
k cat ([1]; HIF-1α556–574 as substrate): 0.06 ± 0.01 s⁻¹
K m for O2 ([1]; HIF-1α395–413 as substrate): >450 µM
K m for O2 ([1]; HIF-1α556–574 as substrate): 460 ± 30 µM
K m for O2 [2]: 110 ± 30 µM
k cat ([2]; O2): 0.56 ± 0.04 s⁻¹
K m for O2 [3]: ~40 µM
K m for O2 [4]: 197 ± 16 µM
k cat ([4]; O2): 0.067 ± 0.001 s⁻¹
k cat ([6]; O2): 0.016 s⁻¹
K m for O2 [6]: 93 ± 43 µM
K^app m (O2): fold greater than that of JMJD6 [7]: ~2 fold
K^app m (O2): fold greater than that of JMJD6 [8]: ~6 fold
K m for O2 [9]: 426 ± 73 µM
k cat ([9]; O2): 0.23 ± 0.04 s⁻¹
K m for O2 [10]: 158 ± 13 µM
k cat ([10]; O2): 0.043 ± 0.001 s⁻¹
K m for O2 [11]: 173 ± 23 µM
K^app m (O2): fold greater than that of JMJD6 [12]: ~6 fold
